# Measurements as given in ChEMBL document CHEMBL3991601, “The target landscape of clinical kinase drugs” (Science, 2017).
# pKd: −log10 of the molar value. Calls of active or inactive are those of the source.
# Target: Serine/threonine-protein kinase/endoribonuclease IRE2 (Homo sapiens, UniProt Q76MJ5)
# Further: in the data inactive means no Kd found up to 30 µM.
# Serine/threonine-protein kinase/endoribonuclease IRE2, sequence (Q76MJ5 whole entry): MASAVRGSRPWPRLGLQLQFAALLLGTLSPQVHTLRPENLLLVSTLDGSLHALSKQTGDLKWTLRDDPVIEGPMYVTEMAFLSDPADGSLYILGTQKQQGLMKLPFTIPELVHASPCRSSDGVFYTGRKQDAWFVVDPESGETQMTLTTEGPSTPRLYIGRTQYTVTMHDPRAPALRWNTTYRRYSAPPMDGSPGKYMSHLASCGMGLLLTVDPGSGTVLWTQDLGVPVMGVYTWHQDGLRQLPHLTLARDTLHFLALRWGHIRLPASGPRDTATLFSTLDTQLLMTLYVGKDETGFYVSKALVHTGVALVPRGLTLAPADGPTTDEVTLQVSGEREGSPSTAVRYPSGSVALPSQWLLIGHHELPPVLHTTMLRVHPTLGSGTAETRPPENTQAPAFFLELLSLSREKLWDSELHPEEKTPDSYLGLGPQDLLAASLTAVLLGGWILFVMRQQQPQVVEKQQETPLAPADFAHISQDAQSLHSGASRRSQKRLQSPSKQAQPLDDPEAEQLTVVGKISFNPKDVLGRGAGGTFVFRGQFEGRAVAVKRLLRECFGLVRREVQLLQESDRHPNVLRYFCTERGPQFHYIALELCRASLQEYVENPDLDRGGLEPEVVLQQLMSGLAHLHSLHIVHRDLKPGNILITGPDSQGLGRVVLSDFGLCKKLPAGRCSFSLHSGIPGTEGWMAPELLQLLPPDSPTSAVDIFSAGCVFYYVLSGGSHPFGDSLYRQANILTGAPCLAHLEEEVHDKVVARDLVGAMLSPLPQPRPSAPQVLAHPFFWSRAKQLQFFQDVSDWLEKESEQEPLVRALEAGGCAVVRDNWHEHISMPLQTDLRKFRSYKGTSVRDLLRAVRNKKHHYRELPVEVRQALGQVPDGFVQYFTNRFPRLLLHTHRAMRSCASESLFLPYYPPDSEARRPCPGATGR
SMILES,Kd,pKd
COc1ccc(-c2ccc3c(N4CCOC[C@@H]4C)nc(N4CCOC[C@@H]4C)nc3n2)cc1CO [AZD-8055],> 30 µM (inactive),
C[C@@H](Nc1cc(F)cc(F)c1)c1cc(C(=O)N(C)C)cc2c(=O)cc(N3CCOCC3)oc12 [AZD-8186],,5.82
Cc1cc2c(F)c(Oc3ncnn4cc(OC[C@@H](C)OC(=O)[C@H](C)N)c(C)c34)ccc2[nH]1 [BRIVANIB ALANINATE],> 30 µM (inactive),
CNC(=O)c1ccc(-c2cnc3ncc(Cc4ccc5ncccc5c4)n3n2)cc1F [CAPMATINIB],> 30 µM (inactive),
O=C(c1ccc(F)c(F)c1Nc1ccc(I)cc1F)N1CC(O)([C@@H]2CCCCN2)C1 [COBIMETINIB],> 30 µM (inactive),
CCc1cnn2c(NCc3ccc[n+]([O-])c3)cc(N3CCCC[C@H]3CCO)nc12 [DINACICLIB],> 30 µM (inactive),

# Target: T1, Phosphatidylinositol 5-phosphate 4-kinase type-2 gamma (Homo sapiens, UniProt Q8TBX8)
# T1 sequence (Q8TBX8 whole entry): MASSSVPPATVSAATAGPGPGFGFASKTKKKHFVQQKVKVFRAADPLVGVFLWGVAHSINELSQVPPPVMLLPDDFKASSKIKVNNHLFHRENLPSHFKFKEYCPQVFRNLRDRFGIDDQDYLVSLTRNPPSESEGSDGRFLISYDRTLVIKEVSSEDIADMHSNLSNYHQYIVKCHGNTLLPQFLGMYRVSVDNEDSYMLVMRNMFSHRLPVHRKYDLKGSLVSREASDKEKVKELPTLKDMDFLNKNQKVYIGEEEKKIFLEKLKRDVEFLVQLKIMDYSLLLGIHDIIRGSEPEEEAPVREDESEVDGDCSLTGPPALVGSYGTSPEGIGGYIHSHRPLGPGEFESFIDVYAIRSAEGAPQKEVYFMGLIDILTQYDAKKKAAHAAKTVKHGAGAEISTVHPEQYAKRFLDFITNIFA
row,SMILES,Kd
1,COc1ccc(-c2ccc3c(N4CCOC[C@@H]4C)nc(N4CCOC[C@@H]4C)nc3n2)cc1CO [AZD-8055],> 30 µM (inactive)
2,C[C@@H](Nc1cc(F)cc(F)c1)c1cc(C(=O)N(C)C)cc2c(=O)cc(N3CCOCC3)oc12 [AZD-8186],> 30 µM (inactive)
3,Cc1cc2c(F)c(Oc3ncnn4cc(OC[C@@H](C)OC(=O)[C@H](C)N)c(C)c34)ccc2[nH]1 [BRIVANIB ALANINATE],> 30 µM (inactive)
4,CNC(=O)c1ccc(-c2cnc3ncc(Cc4ccc5ncccc5c4)n3n2)cc1F [CAPMATINIB],> 30 µM (inactive)
5,O=C(c1ccc(F)c(F)c1Nc1ccc(I)cc1F)N1CC(O)([C@@H]2CCCCN2)C1 [COBIMETINIB],> 30 µM (inactive)
6,CCc1cnn2c(NCc3ccc[n+]([O-])c3)cc(N3CCCC[C@H]3CCO)nc12 [DINACICLIB],> 30 µM (inactive)

# Target: S-adenosylmethionine synthase isoform type-2 (Homo sapiens, UniProt P31153)
# Sequence (P31153 whole entry, canonical isoform): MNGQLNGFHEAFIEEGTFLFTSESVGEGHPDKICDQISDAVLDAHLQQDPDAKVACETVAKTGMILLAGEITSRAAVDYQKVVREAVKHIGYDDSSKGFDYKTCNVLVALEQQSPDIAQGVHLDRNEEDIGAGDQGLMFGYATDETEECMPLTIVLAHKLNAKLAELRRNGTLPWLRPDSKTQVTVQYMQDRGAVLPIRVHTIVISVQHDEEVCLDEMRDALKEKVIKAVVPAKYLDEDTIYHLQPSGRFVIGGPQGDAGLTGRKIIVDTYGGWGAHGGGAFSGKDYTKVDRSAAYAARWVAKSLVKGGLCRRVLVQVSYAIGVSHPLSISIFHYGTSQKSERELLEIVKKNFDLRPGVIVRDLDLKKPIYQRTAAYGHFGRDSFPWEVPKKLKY
row,SMILES,Kd
1,COc1ccc(-c2ccc3c(N4CCOC[C@@H]4C)nc(N4CCOC[C@@H]4C)nc3n2)cc1CO [AZD-8055],> 30 µM (inactive)
2,C[C@@H](Nc1cc(F)cc(F)c1)c1cc(C(=O)N(C)C)cc2c(=O)cc(N3CCOCC3)oc12 [AZD-8186],> 30 µM (inactive)
3,Cc1cc2c(F)c(Oc3ncnn4cc(OC[C@@H](C)OC(=O)[C@H](C)N)c(C)c34)ccc2[nH]1 [BRIVANIB ALANINATE],> 30 µM (inactive)
4,CNC(=O)c1ccc(-c2cnc3ncc(Cc4ccc5ncccc5c4)n3n2)cc1F [CAPMATINIB],> 30 µM (inactive)
5,O=C(c1ccc(F)c(F)c1Nc1ccc(I)cc1F)N1CC(O)([C@@H]2CCCCN2)C1 [COBIMETINIB],> 30 µM (inactive)
6,CCc1cnn2c(NCc3ccc[n+]([O-])c3)cc(N3CCCC[C@H]3CCO)nc12 [DINACICLIB],> 30 µM (inactive)

# Target: T2, Bone morphogenetic protein receptor type-2 (Homo sapiens, UniProt Q13873)
# T2 sequence (Q13873 whole entry): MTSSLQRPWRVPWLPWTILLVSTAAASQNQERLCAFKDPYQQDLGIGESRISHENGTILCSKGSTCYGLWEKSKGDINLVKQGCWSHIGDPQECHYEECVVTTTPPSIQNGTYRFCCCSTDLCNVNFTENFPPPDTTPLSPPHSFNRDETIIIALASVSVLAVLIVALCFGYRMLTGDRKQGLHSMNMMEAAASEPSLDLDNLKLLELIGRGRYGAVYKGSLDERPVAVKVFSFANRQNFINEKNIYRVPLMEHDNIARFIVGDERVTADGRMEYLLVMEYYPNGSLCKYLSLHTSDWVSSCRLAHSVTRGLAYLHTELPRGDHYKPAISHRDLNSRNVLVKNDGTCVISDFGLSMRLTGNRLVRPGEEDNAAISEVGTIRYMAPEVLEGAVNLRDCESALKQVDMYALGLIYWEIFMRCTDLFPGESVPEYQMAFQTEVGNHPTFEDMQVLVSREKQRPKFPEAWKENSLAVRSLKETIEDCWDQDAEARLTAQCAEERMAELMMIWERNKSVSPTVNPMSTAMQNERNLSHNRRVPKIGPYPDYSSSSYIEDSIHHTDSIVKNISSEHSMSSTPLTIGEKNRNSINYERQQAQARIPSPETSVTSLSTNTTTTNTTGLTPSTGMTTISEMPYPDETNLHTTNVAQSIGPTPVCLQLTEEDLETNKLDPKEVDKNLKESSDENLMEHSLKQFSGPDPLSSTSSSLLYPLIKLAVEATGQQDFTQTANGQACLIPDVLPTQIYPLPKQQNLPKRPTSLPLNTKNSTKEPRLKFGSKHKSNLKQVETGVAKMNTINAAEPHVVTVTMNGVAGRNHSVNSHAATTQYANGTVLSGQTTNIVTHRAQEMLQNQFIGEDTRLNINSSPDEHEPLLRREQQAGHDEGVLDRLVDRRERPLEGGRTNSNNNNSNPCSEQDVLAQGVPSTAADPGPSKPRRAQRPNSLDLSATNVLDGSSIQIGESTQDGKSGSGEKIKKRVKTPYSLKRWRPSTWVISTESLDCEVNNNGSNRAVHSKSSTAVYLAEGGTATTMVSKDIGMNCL
row,SMILES,Kd
1,COc1ccc(-c2ccc3c(N4CCOC[C@@H]4C)nc(N4CCOC[C@@H]4C)nc3n2)cc1CO [AZD-8055],> 30 µM (inactive)
2,C[C@@H](Nc1cc(F)cc(F)c1)c1cc(C(=O)N(C)C)cc2c(=O)cc(N3CCOCC3)oc12 [AZD-8186],> 30 µM (inactive)
3,Cc1cc2c(F)c(Oc3ncnn4cc(OC[C@@H](C)OC(=O)[C@H](C)N)c(C)c34)ccc2[nH]1 [BRIVANIB ALANINATE],> 30 µM (inactive)
4,CNC(=O)c1ccc(-c2cnc3ncc(Cc4ccc5ncccc5c4)n3n2)cc1F [CAPMATINIB],> 30 µM (inactive)
5,O=C(c1ccc(F)c(F)c1Nc1ccc(I)cc1F)N1CC(O)([C@@H]2CCCCN2)C1 [COBIMETINIB],> 30 µM (inactive)
6,CCc1cnn2c(NCc3ccc[n+]([O-])c3)cc(N3CCCC[C@H]3CCO)nc12 [DINACICLIB],> 30 µM (inactive)

# Target: T3, STE20-related kinase adapter protein alpha (Homo sapiens, UniProt Q7RTN6)
# T3 sequence (Q7RTN6 whole entry): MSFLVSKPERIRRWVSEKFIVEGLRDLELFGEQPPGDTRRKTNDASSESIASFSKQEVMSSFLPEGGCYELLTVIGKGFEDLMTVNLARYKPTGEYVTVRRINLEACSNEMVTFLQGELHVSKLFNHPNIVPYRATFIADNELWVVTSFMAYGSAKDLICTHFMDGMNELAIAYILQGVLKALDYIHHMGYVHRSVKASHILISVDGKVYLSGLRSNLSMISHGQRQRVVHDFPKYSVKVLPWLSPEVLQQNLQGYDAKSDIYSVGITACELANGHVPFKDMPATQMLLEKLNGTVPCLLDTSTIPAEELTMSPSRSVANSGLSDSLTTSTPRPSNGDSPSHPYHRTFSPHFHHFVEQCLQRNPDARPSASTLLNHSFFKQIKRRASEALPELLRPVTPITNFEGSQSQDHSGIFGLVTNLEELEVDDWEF
row,SMILES,Kd
1,COc1ccc(-c2ccc3c(N4CCOC[C@@H]4C)nc(N4CCOC[C@@H]4C)nc3n2)cc1CO [AZD-8055],> 30 µM (inactive)
2,C[C@@H](Nc1cc(F)cc(F)c1)c1cc(C(=O)N(C)C)cc2c(=O)cc(N3CCOCC3)oc12 [AZD-8186],> 30 µM (inactive)
3,Cc1cc2c(F)c(Oc3ncnn4cc(OC[C@@H](C)OC(=O)[C@H](C)N)c(C)c34)ccc2[nH]1 [BRIVANIB ALANINATE],> 30 µM (inactive)
4,CNC(=O)c1ccc(-c2cnc3ncc(Cc4ccc5ncccc5c4)n3n2)cc1F [CAPMATINIB],> 30 µM (inactive)
5,O=C(c1ccc(F)c(F)c1Nc1ccc(I)cc1F)N1CC(O)([C@@H]2CCCCN2)C1 [COBIMETINIB],> 30 µM (inactive)
6,CCc1cnn2c(NCc3ccc[n+]([O-])c3)cc(N3CCCC[C@H]3CCO)nc12 [DINACICLIB],> 30 µM (inactive)

# Target: T4, Non-receptor tyrosine-protein kinase TNK1 (Homo sapiens, UniProt Q13470)
# T4 sequence (Q13470 whole entry): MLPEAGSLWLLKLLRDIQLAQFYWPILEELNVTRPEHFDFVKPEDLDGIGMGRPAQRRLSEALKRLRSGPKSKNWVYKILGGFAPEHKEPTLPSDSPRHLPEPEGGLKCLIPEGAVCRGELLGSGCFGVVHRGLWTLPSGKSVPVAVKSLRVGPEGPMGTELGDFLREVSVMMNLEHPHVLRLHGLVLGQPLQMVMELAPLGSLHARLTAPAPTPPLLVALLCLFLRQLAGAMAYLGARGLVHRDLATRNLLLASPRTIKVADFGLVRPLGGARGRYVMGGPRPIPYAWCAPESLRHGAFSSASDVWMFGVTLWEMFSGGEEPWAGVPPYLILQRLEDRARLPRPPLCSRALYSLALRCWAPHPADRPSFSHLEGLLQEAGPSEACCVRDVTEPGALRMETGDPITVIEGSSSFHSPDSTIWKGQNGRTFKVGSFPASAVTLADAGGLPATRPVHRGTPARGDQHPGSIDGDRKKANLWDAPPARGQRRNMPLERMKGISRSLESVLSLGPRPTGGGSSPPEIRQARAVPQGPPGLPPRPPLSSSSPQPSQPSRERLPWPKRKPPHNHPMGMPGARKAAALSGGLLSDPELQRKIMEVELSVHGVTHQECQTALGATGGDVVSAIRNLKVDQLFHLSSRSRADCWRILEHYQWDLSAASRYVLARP
row,SMILES,Kd
1,COc1ccc(-c2ccc3c(N4CCOC[C@@H]4C)nc(N4CCOC[C@@H]4C)nc3n2)cc1CO [AZD-8055],> 30 µM (inactive)
2,C[C@@H](Nc1cc(F)cc(F)c1)c1cc(C(=O)N(C)C)cc2c(=O)cc(N3CCOCC3)oc12 [AZD-8186],> 30 µM (inactive)
3,Cc1cc2c(F)c(Oc3ncnn4cc(OC[C@@H](C)OC(=O)[C@H](C)N)c(C)c34)ccc2[nH]1 [BRIVANIB ALANINATE],> 30 µM (inactive)
4,CNC(=O)c1ccc(-c2cnc3ncc(Cc4ccc5ncccc5c4)n3n2)cc1F [CAPMATINIB],> 30 µM (inactive)
5,O=C(c1ccc(F)c(F)c1Nc1ccc(I)cc1F)N1CC(O)([C@@H]2CCCCN2)C1 [COBIMETINIB],> 30 µM (inactive)
6,CCc1cnn2c(NCc3ccc[n+]([O-])c3)cc(N3CCCC[C@H]3CCO)nc12 [DINACICLIB],> 30 µM (inactive)

# Target: RAC-alpha serine/threonine-protein kinase (Homo sapiens, UniProt P31749)
# Sequence (P31749 whole entry): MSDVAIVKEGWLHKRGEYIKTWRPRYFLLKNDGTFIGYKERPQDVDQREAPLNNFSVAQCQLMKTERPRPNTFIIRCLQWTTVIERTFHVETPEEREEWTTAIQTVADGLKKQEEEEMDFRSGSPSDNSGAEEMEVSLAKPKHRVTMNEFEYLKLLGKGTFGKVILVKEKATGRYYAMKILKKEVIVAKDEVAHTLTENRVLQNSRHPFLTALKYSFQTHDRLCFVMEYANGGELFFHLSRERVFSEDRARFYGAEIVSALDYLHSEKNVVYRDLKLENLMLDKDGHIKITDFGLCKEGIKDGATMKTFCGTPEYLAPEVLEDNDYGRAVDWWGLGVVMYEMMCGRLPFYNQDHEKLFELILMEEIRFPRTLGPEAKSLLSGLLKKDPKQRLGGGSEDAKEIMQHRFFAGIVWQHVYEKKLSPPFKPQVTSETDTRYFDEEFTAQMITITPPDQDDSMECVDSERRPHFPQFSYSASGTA
row,SMILES,Kd
1,COc1ccc(-c2ccc3c(N4CCOC[C@@H]4C)nc(N4CCOC[C@@H]4C)nc3n2)cc1CO [AZD-8055],> 30 µM (inactive)
2,C[C@@H](Nc1cc(F)cc(F)c1)c1cc(C(=O)N(C)C)cc2c(=O)cc(N3CCOCC3)oc12 [AZD-8186],> 30 µM (inactive)
3,Cc1cc2c(F)c(Oc3ncnn4cc(OC[C@@H](C)OC(=O)[C@H](C)N)c(C)c34)ccc2[nH]1 [BRIVANIB ALANINATE],> 30 µM (inactive)
4,CNC(=O)c1ccc(-c2cnc3ncc(Cc4ccc5ncccc5c4)n3n2)cc1F [CAPMATINIB],> 30 µM (inactive)
5,O=C(c1ccc(F)c(F)c1Nc1ccc(I)cc1F)N1CC(O)([C@@H]2CCCCN2)C1 [COBIMETINIB],> 30 µM (inactive)
6,CCc1cnn2c(NCc3ccc[n+]([O-])c3)cc(N3CCCC[C@H]3CCO)nc12 [DINACICLIB],> 30 µM (inactive)

# Target: Tyrosine-protein kinase JAK1 (Homo sapiens, UniProt P23458)
# Sequence (P23458 whole entry): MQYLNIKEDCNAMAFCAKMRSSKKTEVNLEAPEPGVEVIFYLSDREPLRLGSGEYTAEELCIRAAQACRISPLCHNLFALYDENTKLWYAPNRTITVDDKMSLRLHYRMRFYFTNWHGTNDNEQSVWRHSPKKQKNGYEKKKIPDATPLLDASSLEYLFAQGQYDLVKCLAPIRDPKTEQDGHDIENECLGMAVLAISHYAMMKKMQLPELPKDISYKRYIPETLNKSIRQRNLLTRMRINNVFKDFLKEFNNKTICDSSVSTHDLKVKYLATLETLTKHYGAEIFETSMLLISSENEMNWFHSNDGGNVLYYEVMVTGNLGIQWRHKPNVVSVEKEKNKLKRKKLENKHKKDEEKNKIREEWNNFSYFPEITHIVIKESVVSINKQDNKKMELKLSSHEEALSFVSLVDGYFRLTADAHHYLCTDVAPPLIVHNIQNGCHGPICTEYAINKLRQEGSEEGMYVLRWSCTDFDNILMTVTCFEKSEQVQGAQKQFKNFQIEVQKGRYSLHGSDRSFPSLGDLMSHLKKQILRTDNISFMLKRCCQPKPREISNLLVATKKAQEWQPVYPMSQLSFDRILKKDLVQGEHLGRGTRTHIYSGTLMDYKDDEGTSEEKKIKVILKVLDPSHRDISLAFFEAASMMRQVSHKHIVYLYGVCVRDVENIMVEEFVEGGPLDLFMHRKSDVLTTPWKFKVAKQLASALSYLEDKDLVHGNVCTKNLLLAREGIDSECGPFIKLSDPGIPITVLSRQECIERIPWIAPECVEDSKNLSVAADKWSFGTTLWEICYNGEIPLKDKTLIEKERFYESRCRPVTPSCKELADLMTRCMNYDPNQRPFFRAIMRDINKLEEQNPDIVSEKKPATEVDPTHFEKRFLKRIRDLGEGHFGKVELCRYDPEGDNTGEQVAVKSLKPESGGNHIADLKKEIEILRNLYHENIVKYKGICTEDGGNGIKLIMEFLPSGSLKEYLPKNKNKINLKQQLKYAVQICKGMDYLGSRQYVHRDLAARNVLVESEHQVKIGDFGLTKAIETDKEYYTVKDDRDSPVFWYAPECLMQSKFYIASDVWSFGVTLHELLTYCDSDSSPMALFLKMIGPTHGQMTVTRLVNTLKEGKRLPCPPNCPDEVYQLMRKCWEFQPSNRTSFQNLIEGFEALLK
row,SMILES,Kd
1,COc1ccc(-c2ccc3c(N4CCOC[C@@H]4C)nc(N4CCOC[C@@H]4C)nc3n2)cc1CO [AZD-8055],> 30 µM (inactive)
2,C[C@@H](Nc1cc(F)cc(F)c1)c1cc(C(=O)N(C)C)cc2c(=O)cc(N3CCOCC3)oc12 [AZD-8186],> 30 µM (inactive)
3,Cc1cc2c(F)c(Oc3ncnn4cc(OC[C@@H](C)OC(=O)[C@H](C)N)c(C)c34)ccc2[nH]1 [BRIVANIB ALANINATE],> 30 µM (inactive)
4,CNC(=O)c1ccc(-c2cnc3ncc(Cc4ccc5ncccc5c4)n3n2)cc1F [CAPMATINIB],> 30 µM (inactive)
5,O=C(c1ccc(F)c(F)c1Nc1ccc(I)cc1F)N1CC(O)([C@@H]2CCCCN2)C1 [COBIMETINIB],> 30 µM (inactive)
6,CCc1cnn2c(NCc3ccc[n+]([O-])c3)cc(N3CCCC[C@H]3CCO)nc12 [DINACICLIB],> 30 µM (inactive)
